In this experiment the test system is P. aeruginosa biofilm. The experiment in a line: Crystal violet biofilm assay, early (8 h preformed) biofilm disruption. The conditions noted are these: biofilm preformed for 8 hours, compared with wild type LUZ19. The class given is cell-based. As to the method: To validate that a Gp34 L55Δ mutation had improved viral properties, the LUZ19 viral genome was isolated from viral particles. Site-specific digestion was performed using an RNA-dependent nuclease and in vitro transcribed gRNAs to remove the gp34 gene (SEQ ID NO:4). The gp34 L55Δ gene, which harbors a deletion of leucine codon at amino acid position 55 (Gp34 L55Δ, position 163-165 of SEQ ID NO:4) was PCR amplified from a LUZ19 evolved phage. The Gibson Assembly method was used to integrate the PCR amplified gp34 L55Δ gene seamlessly into the digested LUZ19 genome. The in vitro transformed genomes were transformed directly into host cells to yield functional viral particles. The engineered LUZ19 virus harboring Gp34 L55Δ was able to diffuse and lyse bacteria. […] Images were taken and zones of clearing were measured over a two-day period (FIG. 5B). […] Crystal violet biofilm assay measures biofilm accumulation as a measure of the incorporation of crystal violet (FIG. 5C). […]
The LUZ19*LKD16gp18 virus was analyzed for improved viral properties, using double agar plaque, biofilm, and an in vitro human keratinocyte attachment assays. […] Specifically, LUZ19*LKD16gp18 and wild type LUZ19 were incubated with a P. aeruginosa biofilm and disruption was measured using crystal violet. […] The LUZ19*LKD16gp18 virus was analyzed for efficacy of phage treatment against bacteria attached to human keratinocytes. […]

In the case of Gentamicin, the early biofilm disruption result was “completely remove biofilm”.

The values above are taken from patent publication US11913032B2, “Compositions of and methods for in vitro viral genome engineering” (C3J Therapeutics, Inc., priority 2014, dated 2024).
